Article PMC8125615 (Molecules, 2021)
Where two headings read alike, the source gives them in different places.

Key:
SARS CoV-2 M^pro = SARS CoV-2 M^pro (Severe acute respiratory syndrome coronavirus 2, UniProt P0DTD1); experiment: In vitro enzyme inhibition assay (SARS-CoV-2 main protease assay kit, fluorescence); type: biochemical
Protocol: GC376 was used as a reference standard inhibitor.
Briefly, 10 µL of test compounds of different concentrations were added into a 96-well plate followed by pipetting 30 µL of the diluted protease 15 µg/mL. The mixtures were incubated for 30 min at room temperature, and then 10 µL of the substrate was dissolved in the reaction buffer and added to reach a 50-µL final volume and 40-µM final concentration. The reaction mixture was then incubated for 4 h at 20 °C followed by measuring the produced fluorescence using a TECAN spark microplate-reading fluorimeter.

SARS CoV M^pro = details: cited from earlier work
[1] = SARS CoV-2 M^pro, fluorescence kit assay, GC376 as reference standard, read-out: IC50

SMILES | IC50 (SARS CoV-2 M^pro) [µM] | IC50 (SARS CoV M^pro) [µM] | IC50 (SARS CoV-2 M^pro; [1]) [µM]
C=C(C)[C@@H]1CC[C@]2(C(=O)O)CC[C@]3(C)[C@H](CC[C@@H]4[C@@]5(C)CC[C@H](O)C(C)(C)[C@@H]5CC[C@]43C)[C@@H]12 [betulinic acid] | 14.5 ± 1.3 | 10 | –
C[C@H]1[C@H](C)CC[C@]2(C(=O)O)CC[C@]3(C)C(=CC[C@@H]4[C@@]5(C)CC[C@H](O)C(C)(C)[C@@H]5CC[C@]43C)[C@H]12 [ursolic acid] | – | – | 12.6 ± 0.28
C=C(C)[C@@H]1CC[C@]2(CO)CC[C@]3(C)[C@H](CC[C@@H]4[C@@]5(C)CC[C@H](O)C(C)(C)[C@@H]5CC[C@]43C)[C@@H]12 [betulin] | – | – | 89.7
CC1(C)CC[C@]2(C(=O)O)CC[C@]3(C)C(=CC[C@@H]4[C@@]5(C)C[C@@H](O)[C@H](O)C(C)(C)[C@@H]5CC[C@]43C)[C@@H]2C1 [maslinic acid] | – | – | 3.22 ± 0.26
